Literature values as cited in US12369587B2, “Aqueous composition of epyrifenacil, flumioxazin and pyroxasulfone” (Valent U.S.A. LLC, priority 2020, dated 2025).

C#CCN1C(=O)COc2cc(F)c(N3C(=O)C4=C(CCCC4)C3=O)cc21 [flumioxazin, 2-(7-fluoro-3-oxo-4-prop-2-ynyl-1,4-benzoxazin-6-yl)-4,5,6,7-tetrahydroisoindole-1,3-dione]
water solubility: 1.79 ppm
